Results reported in article PMC12195660, “Preparation and Evaluation of an Oral Administration System of Albendazole-Metal-Organic Framework Based on Dual Response to pH and Enzymes” (Pharmaceuticals, 2025).

Experiment: In vivo pharmacokinetic study after intragastric administration in rats
Conditions: both sexes, Wistar, rat, po, 25 mg·kg^−1 of ABZ
Description: Eighteen Wistar rats were selected and divided into three groups, with half of them being male and the other half being female. Each group was given a dose of 25 mg·kg^−1 of ABZ by intragastric administration. Blood samples of 200–500 μL were collected from each rat at 0.5, 1, 2, 4, 6, 8, 10, 12, and 24 h after administration and were placed into pre-prepared anticoagulant centrifuge tubes. The samples were centrifuged at 13,000 rpm for 10 min, and the upper plasma was collected and stored at −80 °C in an ultra-low temperature refrigerator.
For sample preparation, plasma was thawed, and 50 μL of plasma was mixed with 150 μL of methanol. The mixture was vortexed for 1 min and then centrifuged at 13,000 rpm for 10 min. The supernatant (135 μL) was collected, followed by the addition of 200 ng·mL^−1 mebendazole as the internal standard. The sample was vortexed for 1 min and then filtered through a microporous membrane. The drug content was quantified using UHPLC-MS/MS (UltiMate 3000 and Q-Exactive Orbitrap MS, Thermo Scientific, USA). Pharmacokinetic parameters were calculated using DAS 2.0 software.
Chromatographic conditions: An Accucore aQ UHPLC column (150 mm × 2.1 mm × 2.5 μm) was used. The column temperature was maintained at 40 ± 1 °C, and the sample tray was kept at 15 ± 0.5 °C. The mobile phase consisted of acetonitrile (A) and water with 0.1% formic acid (B). The elution gradient was as follows: 0–5 min, 95% B. The injection volume was 1 μL, and the flow rate was set to 0.3 mL·min^−1.
Mass spectrometry conditions: Electrospray ionization (ESI) was used with high-purity nitrogen (purity > 99.9%) as the carrier gas. The sheath gas flow rate was 35 Arb, and the auxiliary gas flow rate was 10 Arb. The capillary temperature was set to 320 °C, with the ion lens (S-lens RF level) voltage frequency at 60. The spray voltage was 3.0 kV (positive mode), and full MS positive switching scanning mode was employed, with a scanning range of 150–800.

CCCSc1ccc2nc(NC(=O)OC)[nH]c2c1 [ABZ, albendazole]
half-life (in vivo, n = 6): 2 ± 0.38 h | AUC(0-inf) (plasma, n = 6): 220 ± 25.3 ng·h/mL | AUC(0-t) (plasma, n = 6): 216 ± 27.6 ng·h/mL | Cmax (plasma, n = 6): 34.1 ± 5.19 ng/mL | Tmax (plasma, n = 6): 2 ± 0.38 h | MRT last (plasma, n = 6, read-out: MRT0–t): 6.16 ± 0.36 h | MRT inf (plasma, n = 6, read-out: MRT0–∞): 6.55 ± 0.37 h
